Source: patent US10548898B2, “Quinazoline compounds” (Gilead Sciences, Inc., priority 2014, dated 2020)
Where two headings read alike, the source gives them in different places.

Columns and labels:
Assay type in all cases: cell-based
[1] = test system: HIV-1 recombinant strain encoding reverse transcriptase mutation Y188L; assay: Resistance profile against HIV-1 RT mutants in MT-2 cells, Y188L; conditions: ratio of mean EC50 mutant/WT virus
Procedure: (§1) Compounds were tested for antiviral activity against a panel of NNRTI resistant viruses. A panel of 8 clonal site-directed mutant viruses representing the major resistance development pathways against rilpivirine (“RPV”), efavirenz (“EFV”), and nevirapine (“NVP”), containing both single and double mutations within HIV-1 reverse transcriptase was employed. Further details and background can be found in Janssen et al. J. Med. Chem, 2005, 48, 1901-1909; Das et al., Proc. Nat. Acad. Sci., 2008, vol., 105, no. 5, 1466-1471; and Kuroda et al., Nature Chemistry, 2013, DOI: 10.1038/NCHEM. 1559. […] HIV-1 recombinant strains encoding reverse transcriptase mutations K103N, Y181C, Y188L, G190A, K103N/Y181C, L1001/Y181C, E138K or E138KIM 184V were constructed by site-directed mutagenesis. Wild-type and mutant viruses were prepared by transfecting infectious proviral HXB2-based cDNA clones into MT-2 cells and harvesting the cell supernatants. MT-2 cells were infected with wild-type and mutant HIV-1 strains at a multiplicity of infection (MOI) of 0.005 by gentle mixing for 3 hours at 37° C. and then added at a density of 16,667 cells per well in 50 μL complete RPMI cell culture media (containing 10% fetal bovine serum (FBS) and 10% penicillin-streptomycin) to 96-well plates containing 50 μL of a 3-fold serial dilution of test compounds in RPMI medium. After 5 days of incubation at 37° C. in a humidified incubator in the presence of 5% CO2. 100 μL of Cell Titer-Glo™ Reagent (Promega Biosciences, Inc., Madison, Wis.) was added to each well and the relative light units (RLU) measured on an Envision plate reader. […] The EC50 value was defined as the compound concentration inducing a 50% decrease in virus replication. Data analysis for the antiviral activity observed in MT-2 cells was performed using XL-Fit™ software (IDBS, Guildford, Surrey, UK) to calculate EC50 from an 8-point dose-response curve using the following equation:
(§2) [formula] where y=virus inhibition, x=drug concentration, M=maximum inhibition, H=minimum inhibition and n=Hill coefficient, EC50 values (mean±standard deviation) were calculated from at least three independent experiments performed in triplicate. The level of resistance was calculated as a ratio of the mean EC50 for each mutant/WT virus. Results are disclosed in FIG. 1 and in Tables 3 and 4 below.

[2] = test system: HIV-1 reverse transcriptase mutant Y181C; assay: High throughput cytopathic effect assay in MT-4 cells, Y181C mutant; conditions: for EC50: Human immunodeficiency virus 1, MT4, 120 h, read-out: MT4 EC50 (nM) against Y181C; for FC against mutant Y181C: fold change of MT4 EC50 versus w.t. assay 2
Source text: (§3) Compounds were screened in a miniaturized, high throughput cytopathic effect assay for activity against HIV-1 HBX2 (wild type) and HIV-1 reverse transcriptase mutants K103N and Y181C. In Tables 1 and 2 below. “w.t.” refers to results of the tested compounds run with the wildtype 1 and “w.t, assay 2” refers results of the tested compounds run with the wildtype on the same day as the testing of the compounds with the mutants. Thus, “w.t, assay 2” was run under the same conditions as the testing of the compounds with the mutants and provides a direct comparison with the results from the testing with the mutants.
(§4) Ten-point serial dilutions of compounds with half-log step size were generated in DMSO. AZT ([…]) was used as the positive control and DMSO as the negative control. The Echo acoustic dispenser was used to deliver 200 nL of serially diluted compound into sterile 384 well tissue culture assay plates. Two million MT-4 cells were incubated with each of the 3 viruses at MOI of 0.0005 in separate 1 mL infection tubes for 1 hour at 37° C. The cells were diluted in cell culture medium (RPMI+10% FBS) to 50.000 cells/mL. The infected cells were added to 384 well assay plates containing serially dilute compounds. Assay plates were incubated for 5 days in a humidified incubator set at 37° C. and 5% CO2. To measure the cytopathic effect of HIV, 40 μL Cell TiterGlo was added to each well and the resulting luminescence signal is read with the Envision plate reader (Perkin Elmer). Data were normalized to positive and negative controls in each plate and expressed as % CPE Protection. EC50 values were defined as the compound concentration that caused a 50% decrease in luminescence signal, and were calculated by non-linear regression using Pipeline Pilot software by applying a four parameter fit equation (Accelrys, San Diego, Calif.).

[3] = test system: HIV-1 recombinant strain encoding reverse transcriptase mutation Y181C; assay: Resistance profile against HIV-1 RT mutants in MT-2 cells, Y181C; conditions: ratio of mean EC50 mutant/WT virus
Procedure: as §1, §2

[4] = test system: HIV-1 reverse transcriptase mutant K103N; assay: High throughput cytopathic effect assay in MT-4 cells, K103N mutant; conditions: for EC50: Human immunodeficiency virus 1, MT4, 120 h, read-out: MT4 EC50 (nM) against K103N; for FC against mutant K103N: fold change of MT4 EC50 versus w.t. assay 2
Source text: as §3, §4

[5] = test system: HIV-1 recombinant strain encoding reverse transcriptase mutation G190A; assay: Resistance profile against HIV-1 RT mutants in MT-2 cells, G190A; conditions: ratio of mean EC50 mutant/WT virus
Procedure: as §1, §2

[6] = test system: HIV-1 recombinant strain encoding reverse transcriptase mutation L100I/Y181C; assay: Resistance profile against HIV-1 RT mutants in MT-2 cells, L100I/Y181C; conditions: ratio of mean EC50 mutant/WT virus
Procedure: as §1, §2

[7] = test system: HIV-1 recombinant strain encoding reverse transcriptase mutation K103N; assay: Resistance profile against HIV-1 RT mutants in MT-2 cells, K103N; conditions: ratio of mean EC50 mutant/WT virus
Procedure: as §1, §2

HIV-1 HBX2 (wild type) = assay: High throughput cytopathic effect assay in MT-4 cells, wild type HIV-1
Source text: as §3, §4

[8] = test system: HIV-1 recombinant strain encoding reverse transcriptase mutation K103N/Y181C; assay: Resistance profile against HIV-1 RT mutants in MT-2 cells, K103N/Y181C; conditions: ratio of mean EC50 mutant/WT virus
Procedure: as §1, §2

hERG channels = molecular target: T1, hERG channels (Homo sapiens, UniProt Q12809); assay: hERG assay, whole cell recordings in CHO cell line stably expressing hERG channels; conditions: CHO cells, whole cell patch clamp; greater than values indicate the maximum achievable concentration in the assay
T1 construct: host or cells: CHO cell line stably expressing hERG
Procedure: AVIVA's CHO cell line, which stably expresses hERG channels, was used for the study. Cells were cultured in DMEM/F12 containing 10% FBS, 1% penicillin/streptomycin and 500 μg/ml G418. Before testing, cells were harvested using Accumax (Innovative Cell Technologies).
External Solution: 2 mM CaCl2; 2 mM MgCl2; 4 mM KCl; 150 mM NaCl; 10 mM Glucose; 10 mM HEPES; 305-315 mOsm; pH 7.4 (adjusted with 5M NaOH.)
Internal Solution: 140 mM KCl; 10 mM MgCl2; 6 mM EGTA; 5 mM HEPES-Na; 5 mM ATP-Mg; 295-305 mOsm; pH 7.25 (adjusted with 1M KOH).
Whole cell recordings were performed using PX 7000A (Axon Instruments) with AVIVA's SealChip™ technology. Cells were voltage clamped at a holding potential of −80 mV. The hERG current was then activated by a depolarizing step to −50 mV for 300 ms. This first step at −50 mV was used as a baseline for measuring peak amplitude of the tail current. Next, a voltage step to +20 mV was applied for 5 s to activate the channels. Finally, a step back to −50 mV for 5 s removed activation and the deactivating tail current was recorded.
All test articles were prepared from 10 mM DMSO stock solutions. Solutions were mixed by sonication for 20 min, followed by vigorous vortexing. Prior to testing, compounds were diluted to test concentrations in glass vials using External Solution. Dilutions were prepared no longer than 20 min prior to use.
After achieving whole cell configuration, cells were monitored for 90 s to assess stability and then washed with External Solution for 66 s. The voltage protocol was then applied to the cells every 12 s throughout the procedure. Only stable cells with recording parameters above threshold were allowed to enter the drug addition procedure.
External solution containing 0.1% DMSO (vehicle) was applied to the cells to establish a baseline. After allowing the current to stabilize for 3 to 10 min, test articles were applied. Test article solutions were added to cells in 4 separate additions. Cells were kept in test solution until effect of the test article reached steady state, to a maximum of 12 min. Next, 1 μM cisapride (positive control) was added. Finally, washout with External Solution was performed until the recovery current reached steady state.
Data analysis was performed using DataXpress (Axon Instruments), Clampfit (Axon Instruments) and Origin (OriginLab Corporation) software. The greater than values in Table 5 indicate the maximum achievable concentration in the assay (e.g., compounds achieving their solubility limit).

[9] = Human immunodeficiency virus 1, MT4, 120 h, MT-4 cells, 5 days, cytopathic effect, Cell TiterGlo, read-out: MT4 EC50 (nM) against w.t.
[10] = Human immunodeficiency virus 1, MT4, read-out: MT4 EC50 (nM) against w.t. assay 2

T1 sequence (Q12809 whole entry): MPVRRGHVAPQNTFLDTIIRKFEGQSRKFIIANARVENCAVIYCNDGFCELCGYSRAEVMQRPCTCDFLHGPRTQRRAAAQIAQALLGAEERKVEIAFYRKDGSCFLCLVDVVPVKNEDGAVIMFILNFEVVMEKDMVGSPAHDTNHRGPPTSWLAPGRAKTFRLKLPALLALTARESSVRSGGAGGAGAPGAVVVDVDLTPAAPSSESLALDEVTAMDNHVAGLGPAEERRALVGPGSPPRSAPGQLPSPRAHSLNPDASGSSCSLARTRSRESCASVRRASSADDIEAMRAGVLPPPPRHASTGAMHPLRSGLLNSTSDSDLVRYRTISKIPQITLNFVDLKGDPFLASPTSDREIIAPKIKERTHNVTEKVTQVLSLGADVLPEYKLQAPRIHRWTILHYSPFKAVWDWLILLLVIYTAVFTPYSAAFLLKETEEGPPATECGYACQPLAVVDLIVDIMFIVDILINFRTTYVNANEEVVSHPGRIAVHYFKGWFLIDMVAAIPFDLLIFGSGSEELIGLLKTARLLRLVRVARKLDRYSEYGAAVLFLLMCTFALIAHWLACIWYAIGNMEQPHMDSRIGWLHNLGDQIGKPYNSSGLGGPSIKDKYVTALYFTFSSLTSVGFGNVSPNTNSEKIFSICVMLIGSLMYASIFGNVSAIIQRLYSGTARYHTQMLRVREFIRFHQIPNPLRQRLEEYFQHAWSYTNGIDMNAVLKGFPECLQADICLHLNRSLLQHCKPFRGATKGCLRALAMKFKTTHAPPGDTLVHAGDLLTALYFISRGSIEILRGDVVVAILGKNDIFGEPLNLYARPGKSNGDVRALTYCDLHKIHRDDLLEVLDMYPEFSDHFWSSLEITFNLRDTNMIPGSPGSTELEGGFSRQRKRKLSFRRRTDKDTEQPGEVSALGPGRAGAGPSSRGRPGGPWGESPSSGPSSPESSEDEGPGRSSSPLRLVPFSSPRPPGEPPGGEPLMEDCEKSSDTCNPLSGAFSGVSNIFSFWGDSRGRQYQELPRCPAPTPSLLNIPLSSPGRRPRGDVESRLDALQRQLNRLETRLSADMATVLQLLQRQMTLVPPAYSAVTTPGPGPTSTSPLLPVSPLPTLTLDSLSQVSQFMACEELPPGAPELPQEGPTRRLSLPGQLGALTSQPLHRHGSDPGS

| Compound | Biology resistance panel-low throughput fold change (FC) Y188L [1] | EC50 [2] | FC against mutant Y181C [2] | Biology resistance panel-low throughput fold change (FC) Y181C [3] | EC50 [4] | FC against mutant K103N [4] | Biology resistance panel-low throughput fold change (FC) G190A [5] | Biology resistance panel-low throughput fold change (FC) L100I/Y181C [6] | Biology resistance panel-low throughput fold change (FC) K103N [7] | EC50 (HIV-1 HBX2 (wild type); [9]) | EC50 (HIV-1 HBX2 (wild type); [10]) | Biology resistance panel-low throughput fold change (FC) K103N/Y181C [8] | hERG (hERG channels) | EC50 (HIV-1 HBX2 (wild type); Human immunodeficiency virus 1, MT4, 120 h, read-out: MT4 EC50 (nM) against w.t.) |
| --- | --- | --- | --- | --- | --- | --- | --- | --- | --- | --- | --- | --- | --- | --- |
| Cc1cc(/C=C/C#N)cc(C)c1-c1cccc2cnc(Nc3ccc(C#N)cc3)nc12 [Compound 1, (E)-4-((8-(4-(2-Cyanovinyl)-2,6-dimethylphenyl)quinazolin-2-yl)amino)benzonitrile] | 15.2 | 17.8 nM | 2.9 | 5.7 | 8.8 nM | 1.4 | 0.6 | 6.9 | 1.3 | 3 nM | 6.2 nM | 14.8 | – | – |
| Cc1cc(/C=C/C#N)cc(C)c1-c1cccc2c(N)nc(Nc3ccc(C#N)nc3)nc12 [Compound 9, (E)-5-((4-Amino-8-(4-(2-cyanovinyl)-2,6-dimethylphenyl)quinazolin-2-yl)amino)picolinonitrile] | 11.4 | 10.8 nM | 3.4 | 5.7 | 3.5 nM | 1.1 | – | 4.0 | 1.0 | 3.4 nM | 3.2 nM | 14.7 | >3 µM | – |
| Cc1cc(/C=C/C#N)cc(C)c1-c1cccc2c(N)nc(Nc3ccc(C#N)cn3)nc12 [Compound 10, (E)-6-((4-Amino-8-(4-(2-cyanovinyl)-2,6-dimethylphenyl)quinazolin-2-yl)amino)nicotinonitrile] | 53.6 | 29.3 nM | 9.8 | 11.9 | 2.9 nM | 1.0 | – | 3.8 | 0.9 | 2.8 nM | 3 nM | 19.9 | >3 µM | – |
| Cc1cc(/C=C/C#N)cc(C)c1-c1cccc2c(N)nc(Nc3ccc(C#N)nn3)nc12 [Compound 11, (E)-6-((4-Amino-8-(4-(2-cyanovinyl)-2,6-dimethylphenyl)quinazolin-2-yl)amino)pyridazine-3-carbonitrile] | 161.0 | 126 nM | 29.8 | 154.0 | 5.2 nM | 1.2 | – | 85.0 | 2.1 | 4.7 nM | 4.2 nM | 157.0 | >3 µM | – |
| Cc1cc(/C=C/C#N)cc(C)c1-c1cccc2c(N)nc(Nc3cnc(C#N)cn3)nc12 [Compound 12, (E)-5-((4-Amino-8-(4-(2-cyanovinyl)-2,6-dimethylphenyl)quinazolin-2-yl)amino)pyrazine-2-carbonitrile] | – | 12.5 nM | 6.9 | – | 1.7 nM | 0.9 | – | – | – | – | 1.8 nM | – | >3 µM | 1.8 nM |
| Cc1cc(/C=C/C#N)cc(C)c1-c1cccc2cnc(Nc3ccc(C#N)cn3)nc12 [Compound 13, (E)-6-((8-(4-(2-Cyanovinyl)-2,6-dimethylphenyl)quinazolin-2-yl)amino)nicotinonitrile] | – | 27.4 nM | 6.4 | – | 5.9 nM | 1.4 | – | – | – | 3.2 nM | 4.3 nM | – | 1.3 µM | – |
| Cc1ccnc2c1NC(=O)c1cccnc1N2C1CC1 [Nevirapine, reference compound] | >229 | – | – | >229 | – | – | 183.0 | >229 | 87.0 | 65 nM | – | – | – | – |
